≈ marks a conversion by molar mass, not a printed value.
Tests used:
Format in all cases: cell-based
[1] = test system: Human colon adenocarcinoma WiDr cells; assay: In vitro antitumor test (trypan blue exclusion viable cell count), WiDr
Description: (§1) An appropriate amount of NFD was dissolved in DMSO to give a 1.0 mg/ml stock solution, which was diluted as necessary before use.
(§2) The following cells in the late logarithmic phase were harvested after treatment with trypsin (containing 0.25% trypsin and 0.02% EDTA; 37° C., 3 min) and used in the test: human lung adenocarcinoma cell lines A-549, VMRC-LCD and SK-LU-1, human lung squamous cell carcinoma Calu-1 cells, human colon adenocarcinoma WiDr cells, human prostate cancer LNCaP cells, human vaginal squamous cell carcinoma A-431 cells, human cervical carcinoma HeLa cells, human cholangiocarcinoma HuCC-T1 cells, mouse skin cancer melanoma B16 (M4) cells, human pancreatic carcinoma ASPC-1 cells, human neuroblastoma IMR-132 cells, human lung small cell carcinoma SCCH-194 cells, human uninary bladder carcinoma T24 cells, human renal cell carcinoma […] cells, human gastric cancer NUGC-2 cells, human thyroid carcinoma 8305C cells, human hepatoma HUH-7 cells, human ovarian carcinoma TYK-nu cells and human chorio carcinoma BeWo cells. Suspension cultures of human breast cancer MRK-nu-1 cells, human malignant B-cell lymphoma cells and human chronic myelogenous leukemia K562 cells were used to harvest the cells to be used in the test. […] These cells were plated onto a 96-well microplate at a density of 5-10×10^3 cells/cm^2 using DMEM or RPMI-1640 medium containing 10% fetal bovine serum and cultured for 24 hours in a conventional manner, after which a pre-determined amount of NFD dissolved in DMSO was added to each well. Cultivation was continued, and the number of viable cells was counted after 24, 48 and 72 hours. […]
Growth inhibitory action and lethal activity of NFD on various types of malignant tumor cells and normal human cells listed above were evaluated by counting the number of viable cells in each well of the 96-well microplate. […]

[2] = test system: Normal human peripheral blood lymphocytes; assay: In vitro growth test on normal cells, peripheral blood lymphocytes
Description: as §1
as §2, with “cells.” for “cells. Suspension cultures of human breast cancer MRK-nu-1 cells, human malignant B-cell lymphoma cells and human chronic myelogenous leukemia K562 cells were used to harvest the cells to be used in the test.”, “well.” for “well. Cultivation was continued, and the number of viable cells was counted after 24, 48 and 72 hours.”

[3] = test system: Human vaginal squamous cell carcinoma A-431 cells; assay: In vitro antitumor test (trypan blue exclusion viable cell count), A-431
Description: as §1
as §2, with “cells.” for “cells. Suspension cultures of human breast cancer MRK-nu-1 cells, human malignant B-cell lymphoma cells and human chronic myelogenous leukemia K562 cells were used to harvest the cells to be used in the test.”, “well.” for “well. Cultivation was continued, and the number of viable cells was counted after 24, 48 and 72 hours.”

[4] = test system: Human neuroblastoma IMR-132 cells; assay: In vitro antitumor test (trypan blue exclusion viable cell count), IMR-132
Description: as §1
as §2, with “cells.” for “cells. Suspension cultures of human breast cancer MRK-nu-1 cells, human malignant B-cell lymphoma cells and human chronic myelogenous leukemia K562 cells were used to harvest the cells to be used in the test.”, “well.” for “well. Cultivation was continued, and the number of viable cells was counted after 24, 48 and 72 hours.”

[5] = test system: Human chronic myelogenous leukemia K562 cells; assay: In vitro antitumor test (trypan blue exclusion viable cell count), K562; settings: 72 h, three days exposure, read-out: LD50 (IC50), 50% growth-inhibitory dose
Description: as §1
as §2, with “cells.” for “cells. Suspension cultures of human breast cancer MRK-nu-1 cells, human malignant B-cell lymphoma cells and human chronic myelogenous leukemia K562 cells were used to harvest the cells to be used in the test.”, “well.” for “well. Cultivation was continued, and the number of viable cells was counted after 24, 48 and 72 hours.”

[6] = test system: Normal human N6KA fibroblasts; assay: In vitro growth test on normal cells, N6KA fibroblasts
Description: as §1
as §2, with “cells.” for “cells. Suspension cultures of human breast cancer MRK-nu-1 cells, human malignant B-cell lymphoma cells and human chronic myelogenous leukemia K562 cells were used to harvest the cells to be used in the test.”, “well.” for “well. Cultivation was continued, and the number of viable cells was counted after 24, 48 and 72 hours.”

In the case of CC(O)c1cc2c(o1)C(=O)c1cccc(O)c1C2=O (stereo not drawn) [NFD, 2-(1-hydroxyethyl)-5-hydroxynaphtho[2,3-b]furan-4,9-dione], the “concentration causing necrosis in almost all tumor cells” value ([1]; FIG. 5) is reported as 44.7 to 55.9 ng/mL, the IC50 ([1]; Homo sapiens, 72 h, WiDr, three days exposure, read-out: LD50 (IC50), 50% growth-inhibitory dose) is reported as 0.011 µg/mL (≈ 0.0426 µM) and the IC (almost complete) ([1]; Homo sapiens, WiDr, FIG. 5, read-out: concentration inhibiting growth almost completely) is reported as 0.0224 to 0.0335 µg/mL. For the same molecule, the “adverse effects on growth of normal cells” value ([2]; FIG. 26, at concentrations which cause necrosis in tumor cells) was “no adverse effects”, the IC50 ([2]; Homo sapiens, Lymphocyte, 72 h, normal peripheral blood lymphocytes, three days exposure, read-out: LD50 (IC50), 50% growth-inhibitory dose) was 0.084 µg/mL (≈ 0.325 µM) and the IC50 ([3]; 72 h, three days exposure, read-out: LD50 (IC50), 50% growth-inhibitory dose) was 0.021 µg/mL (≈ 0.0813 µM). The IC (almost complete) ([3]; FIG. 7, read-out: concentration inhibiting growth almost completely) was 0.0279 µg/mL, the IC50 ([4]; 72 h, IMR-132, three days exposure, read-out: LD50 (IC50), 50% growth-inhibitory dose) was 0.01 µg/mL (≈ 0.0387 µM) and the IC (almost complete) ([4]; FIG. 14, read-out: concentration inhibiting growth almost completely) was 0.0447 µg/mL. For the same molecule, the IC50 [5] was 0.014 µg/mL (≈ 0.0542 µM), the “adverse effects on growth of normal cells” value ([6]; FIG. 24, at concentrations which cause necrosis in tumor cells) was “no adverse effects” and the IC50 ([6]; Homo sapiens, Fibroblast, 72 h, N6KA normal fibroblasts, three days exposure, read-out: LD50 (IC50), 50% growth-inhibitory dose) was 0.084 µg/mL (≈ 0.325 µM).
